BigSolDB 2.1

O=C(O)c1cccc(C(=O)O)c1
Settings | solubility (mole fraction)
in 1,2-diethoxyethane, 293.3 K | 0.00265
in 1,2-diethoxyethane, 303.15 K | 0.00293
in 1,2-diethoxyethane, 313.15 K | 0.0033
in 1,2-diethoxyethane, 322.75 K | 0.00376
in 1,2-diethoxyethane, 332.65 K | 0.00433
in 1,2-diethoxyethane, 342.45 K | 0.00502
in THF, 293.35 K | 0.0141
in THF, 303.15 K | 0.0154
in THF, 313.45 K | 0.0169
in THF, 322.85 K | 0.0185
in THF, 328.75 K | 0.0196
in acetophenone, 303.15 K | 0.000725
in acetophenone, 313.15 K | 0.000858
in acetophenone, 323.05 K | 0.00105
in acetophenone, 332.95 K | 0.00135
in acetophenone, 342.95 K | 0.00175
in cyclohexanone, 293.35 K | 0.00239
in cyclohexanone, 303.15 K | 0.00302
in cyclohexanone, 313.15 K | 0.00385
in cyclohexanone, 322.75 K | 0.00469
in cyclohexanone, 332.75 K | 0.00571
in cyclohexanone, 342.85 K | 0.00697

O=C(O)c1ccccc1C(=O)O
Settings | solubility (mole fraction)
in 1,2-diethoxyethane, 293.15 K | 0.0154
in 1,2-diethoxyethane, 303.25 K | 0.0177
in 1,2-diethoxyethane, 313.2 K | 0.02
in 1,2-diethoxyethane, 323.05 K | 0.0228
in 1,2-diethoxyethane, 333.15 K | 0.0261
in 1,2-diethoxyethane, 343.05 K | 0.0302
in THF, 293.25 K | 0.0697
in THF, 303.15 K | 0.0754
in THF, 313.45 K | 0.0826
in THF, 323.15 K | 0.0899
in THF, 329.05 K | 0.0949
in acetophenone, 303.35 K | 0.0056
in acetophenone, 313.35 K | 0.00724
in acetophenone, 323.35 K | 0.00933
in acetophenone, 332.95 K | 0.0119
in acetophenone, 343.55 K | 0.0152
in cyclohexanone, 293.15 K | 0.0176
in cyclohexanone, 303.15 K | 0.0212
in cyclohexanone, 313.15 K | 0.0257
in cyclohexanone, 323.15 K | 0.031
in cyclohexanone, 333.15 K | 0.037
in cyclohexanone, 343.4 K | 0.0459

O=C(O)c1ccc(C(=O)O)cc1
Settings | solubility (mole fraction)
in 1,2-diethoxyethane, 293.15 K | 0.000214
in 1,2-diethoxyethane, 303.3 K | 0.000251
in 1,2-diethoxyethane, 313.25 K | 0.000294
in 1,2-diethoxyethane, 323.35 K | 0.000344
in 1,2-diethoxyethane, 333.65 K | 0.000403
in 1,2-diethoxyethane, 343.55 K | 0.000477
in THF, 293.15 K | 0.000882
in THF, 303.15 K | 0.000995
in THF, 313.45 K | 0.00115
in THF, 323.35 K | 0.0014
in THF, 329.35 K | 0.00164
in acetophenone, 303.15 K | 1.07e-05
in acetophenone, 313.15 K | 1.87e-05
in acetophenone, 323.15 K | 3.47e-05
in acetophenone, 332.85 K | 6.17e-05
in acetophenone, 343.3 K | 0.000116
in cyclohexanone, 293.15 K | 0.000167
in cyclohexanone, 303.15 K | 0.000183
in cyclohexanone, 313.15 K | 0.000231
in cyclohexanone, 323.3 K | 0.000302
in cyclohexanone, 333.4 K | 0.000385
in cyclohexanone, 343.85 K | 0.00053
